Laboratory results taken from PubChem BioAssay (NCI).
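Results reflect a 48-hour exposure of cells in 96-well plates to compound at five concentrations. TGI: total growth inhibition.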

Columns and labels:
Assay in all cases: growth of human tumour cells (NCI), 48 h
A498 renal = tested on: A498 renal
ACHN renal = tested on: ACHN renal
COLO 205 colon = tested on: COLO 205 colon
DU-145 prostate = tested on: DU-145 prostate
EKVX NSCLC = tested on: EKVX NSCLC
HCT-116 colon = tested on: HCT-116 colon
HOP-92 NSCLC = tested on: HOP-92 NSCLC
HS 578T breast = tested on: HS 578T breast
MDA-MB-231 breast = tested on: MDA-MB-231 breast
MDA-MB-435 = tested on: MDA-MB-435
NCI-H522 lung = tested on: NCI-H522 lung
OVCAR-5 ovarian = tested on: OVCAR-5 ovarian
RPMI-8226 leukemia = tested on: RPMI-8226 leukemia
RXF 393 renal = tested on: RXF 393 renal
SF-295 CNS = tested on: SF-295 CNS
SF-539 CNS = tested on: SF-539 CNS
SK-MEL-2 melanoma = tested on: SK-MEL-2 melanoma
SW-620 colon = tested on: SW-620 colon
T-47D breast = tested on: T-47D breast
SNB-75 CNS = tested on: SNB-75 CNS

Structure (SMILES)	TGI (A498 renal)	TGI (ACHN renal)	TGI (COLO 205 colon)	TGI (DU-145 prostate)	TGI (EKVX NSCLC)	TGI (HCT-116 colon)	TGI (HOP-92 NSCLC)	TGI (HS 578T breast)	TGI (MDA-MB-231 breast)	TGI (MDA-MB-435)	TGI (NCI-H522 lung)	TGI (OVCAR-5 ovarian)	TGI (RPMI-8226 leukemia)	TGI (RXF 393 renal)	TGI (SF-295 CNS)	TGI (SF-539 CNS)	TGI (SK-MEL-2 melanoma)	TGI (SW-620 colon)	TGI (T-47D breast)	TGI (SNB-75 CNS)
O=C(O)c1nc2ccc(Cl)cc2[nH]c1=O	> 100 µM	> 100 µM	> 100 µM	> 100 µM	> 100 µM	> 100 µM	> 100 µM	> 100 µM	> 100 µM	> 100 µM	> 100 µM	> 100 µM	> 100 µM	> 100 µM	> 100 µM	> 100 µM	> 100 µM	> 100 µM	> 100 µM	
Cn1nc2ccc([N+](=O)[O-])cc2[n+]1[O-]	> 100 µM	> 100 µM	> 100 µM	> 100 µM	> 100 µM	> 100 µM		> 100 µM	> 100 µM	> 100 µM	> 100 µM	> 100 µM		> 100 µM	> 100 µM	> 100 µM	> 100 µM		> 100 µM	> 100 µM
COc1ccc2c(c1)c1c(n2CCN2CCOCC2)-c2cccc(OC)c2CC1	> 100 µM	> 100 µM	28.5 µM	> 100 µM		> 100 µM	> 100 µM	> 100 µM	> 100 µM	> 100 µM	89 µM	> 100 µM	68.1 µM	> 100 µM	> 100 µM	> 100 µM	> 100 µM	> 100 µM	> 100 µM	
O=C1c2c(ccc3c2CCC3)CC1Cc1ccc2c(c1)CCC2 (stereo not given)	> 100 µM	> 100 µM	51.4 µM	> 100 µM	> 100 µM	47.2 µM		61.6 µM	49 µM	92.4 µM		> 100 µM	53.1 µM	69.1 µM	94.3 µM	> 100 µM	73.8 µM	> 100 µM	27 µM	56 µM
CC(=O)N1c2ccccc2C2=NN(C)C(=N)SC21 (stereo not given)	> 100 µM	> 100 µM	> 100 µM	> 100 µM	> 100 µM	> 100 µM		> 100 µM	> 100 µM	> 100 µM	> 100 µM	> 100 µM	> 100 µM		> 100 µM	> 100 µM	> 100 µM	> 100 µM	> 100 µM	> 100 µM
COC(=O)c1cc(OS(=O)(=O)C(F)(F)F)c(=O)n2c1CCCC2	> 100 µM	> 100 µM	> 100 µM	> 100 µM	> 100 µM	> 100 µM		> 100 µM	> 100 µM	> 100 µM	> 100 µM	> 100 µM		> 100 µM	> 100 µM	> 100 µM	> 100 µM	> 100 µM	> 100 µM	> 100 µM
CC(C)(C)c1cc2c(c(C(C)(C)C)c1O)CC(=O)O2	94.7 µM	55.5 µM	37.6 µM	> 100 µM	> 100 µM	> 100 µM	17.9 µM	97.3 µM	75.4 µM	66 µM	> 100 µM	> 100 µM	65 µM	54.5 µM	85.7 µM	62.5 µM	47.7 µM	> 100 µM	64.7 µM	
COc1cccc2c1C1(O)C2CCCCCCCCCC12OCCCO2 (stereo not given)	> 100 µM	> 100 µM	> 100 µM	> 100 µM		> 100 µM		> 100 µM	> 100 µM	> 100 µM	> 96.5 µM	> 100 µM	> 80.1 µM	> 100 µM	> 86.9 µM	> 100 µM	> 73.2 µM	> 100 µM	> 100 µM	> 91.8 µM
CC(C)=NNc1snnc1C(N)=O	> 100 µM	> 100 µM	> 100 µM	> 100 µM	> 100 µM	> 100 µM		> 100 µM	> 100 µM	> 100 µM	> 100 µM	> 100 µM	> 100 µM	> 100 µM	> 100 µM	> 100 µM	> 100 µM		> 100 µM	> 100 µM
O=c1[nH]nc(-c2ccccc2)n1/N=C/c1ccco1	> 100 µM	> 100 µM	> 100 µM	> 100 µM	> 100 µM	> 100 µM	> 100 µM	> 100 µM		> 100 µM	> 100 µM	> 100 µM		> 100 µM	> 100 µM	> 100 µM	> 100 µM	> 100 µM	> 100 µM	> 100 µM
CCN(CC)Cc1ccccc1CC(=O)N1c2ccccc2C(=O)Nc2cccnc21	> 100 µM	> 100 µM	> 100 µM	> 100 µM	> 100 µM	> 100 µM	> 100 µM	> 100 µM	> 100 µM	> 100 µM	> 100 µM	> 100 µM	> 100 µM	> 100 µM	> 100 µM	> 100 µM	> 100 µM	> 100 µM	> 100 µM	
C=C(Cl)/C(=C\Cl)CCC(Cl)C(C)C (stereo not given)	> 100 µM	> 100 µM	> 100 µM	> 100 µM	> 100 µM	> 100 µM	> 100 µM	> 100 µM	> 100 µM	> 100 µM	> 100 µM	> 100 µM	> 100 µM	> 100 µM	> 100 µM	> 100 µM	> 100 µM	> 100 µM		> 100 µM
O/N=C1\CC2(N3CCOCC3)CCC1(c1ccccc1)CC2	> 100 µM	> 100 µM	> 100 µM	> 100 µM	> 100 µM	> 100 µM	> 100 µM	> 100 µM		> 100 µM	> 100 µM	> 100 µM	> 100 µM	> 100 µM	> 100 µM	> 100 µM	> 100 µM	> 100 µM	> 100 µM	> 100 µM
O=C1CNC(=O)/C(=C/c2c[nH]c3ccccc23)N1	> 100 µM	> 100 µM		> 100 µM	> 100 µM	> 100 µM	> 100 µM	> 100 µM		> 100 µM	> 100 µM	> 100 µM	> 100 µM	> 100 µM	> 100 µM		> 100 µM	> 100 µM	> 100 µM	
O=C1CCC(=O)N1CNc1ccc2c(c1)S(=O)(=O)c1ccccc1O2	> 100 µM	> 100 µM	> 100 µM	> 100 µM	> 100 µM	> 100 µM	> 100 µM	> 100 µM	> 100 µM	> 100 µM	> 100 µM	> 100 µM	> 100 µM	> 100 µM	> 100 µM	> 100 µM	> 100 µM	> 100 µM	> 100 µM	
Cc1cc(C)c2c(n1)S(=O)(=O)N(CCCN1CCN(c3cccc(Cl)c3)CC1)/C(=C(\O)c1ccccc1)C2=O	> 100 µM	> 100 µM	36.9 µM	> 100 µM	82.7 µM	92.5 µM	77.4 µM	> 100 µM	> 100 µM	> 100 µM	> 100 µM	> 100 µM			95.9 µM	> 100 µM	> 100 µM	> 100 µM	> 100 µM	
CC(=O)NC1C(OC(C)C(=O)NC(C(=O)NC(CCC(=O)NCCCNC2c3ccccc3Nc3cccc([N+](=O)[O-])c32)C(N)=O)C(C)C)C(O)C(CO)OC1(C)OCc1ccccc1 (stereo not given)	4.11 µM	2.19 µM	7.77 µM	0.817 µM	3.43 µM	1.3 µM		4.75 µM	3.02 µM	2.77 µM	2.37 µM	9.44 µM	1.01 µM	2.13 µM	3.23 µM		3.56 µM	1.81 µM	4.16 µM	4.34 µM
O=C(O)Cc1ccc(Nc2nc3ccccc3nc2C(=O)O)cc1	> 100 µM	> 100 µM	> 100 µM	> 100 µM	> 100 µM	> 100 µM	> 100 µM	> 100 µM		> 100 µM	> 100 µM	> 100 µM		> 100 µM	> 100 µM	> 100 µM	> 100 µM	> 100 µM	> 100 µM	> 100 µM
CSc1nc(Nc2ccccc2Cl)c2c(N)nn(C)c2n1	> 100 µM	26 µM	> 100 µM	> 100 µM	> 100 µM	> 100 µM		> 100 µM	> 100 µM	> 100 µM	> 100 µM	> 100 µM	> 100 µM	> 100 µM	> 100 µM		> 100 µM	> 100 µM	63.5 µM	
CCOc1ccccc1NC(=O)C(=O)C(/C(=N/N)C(=O)OC)c1nc2ccc([N+](=O)[O-])cc2[nH]c1=O (stereo not given)	> 100 µM				> 100 µM	> 100 µM	> 100 µM	> 100 µM	> 100 µM	> 100 µM	> 100 µM	> 100 µM	> 100 µM	> 100 µM	> 100 µM	> 100 µM	> 100 µM	> 100 µM	> 100 µM	> 100 µM
